Assay results reported in paper PMC2850129, “Changes in Activity and Kinetic Properties of the Proteasome in Different Rat Organs during Development and Maturation” (Current Gerontology and Geriatrics Research, 2010).
Starred links: 1 amine or outer side, 2 acyl side, 3 side chain; linkers in the order of their positions; H or OH if unused. Residues, ends and D or L forms follow the SMILES beside them. *: point of attachment. AMC = Cc1cc(=O)oc2cc(N*)ccc12; Suc = O=C(CCC(=O)[*:2])[*:1]; Cbz = O=C(OCc1ccccc1)*; Boc = CC(C)(C)OC(=O)*

Target: T1, proteasome (Rattus norvegicus, UniProt P28073+P28075+Q9JHW0)
T1 construct: gene Psmb5; native, not purified; soluble fraction (100,000 g supernatant) of liver, brain or lens homogenate; 20S/26S and immunoproteasome content not resolved; with Proteasome subunit beta type-1; Proteasome subunit beta type-2; Proteasome subunit beta type-3; Proteasome subunit beta type-4; Proteasome subunit alpha type-1; Proteasome subunit alpha type-2; Proteasome subunit alpha type-3; Proteasome subunit alpha type-4; Proteasome subunit alpha type-5; Proteasome subunit alpha type-6; Proteasome subunit alpha type-7
Assay: fluorogenic AMC release, Lineweaver-Burk plot
Assay type: biochemical
Settings: liver soluble fraction, Tris pH 7.5, EDTA, 2 mM DTT, 37°C, per-animal values versus age, brain and lens in Figures 2 and 3

Cc1cc(=O)oc2cc(NC(=O)[C@H](CCC(=O)O)NC(=O)[C@H](CC(C)C)NC(=O)[C@H](CC(C)C)NC(=O)OCc3ccccc3)ccc12 [LLE, Z-Leu-Leu-Glu-AMC] (Cbz-Leu-Leu-Glu-{AMC})
K m (peptidylglutamyl peptidase site (beta1)): Michaelis-Menten constants (K m) of the proteasome in rat liver versus age

Cc1cc(=O)oc2cc(NC(=O)[C@H](Cc3ccc(O)cc3)NC(=O)[C@@H](NC(=O)[C@H](CC(C)C)NC(=O)[C@H](CC(C)C)NC(=O)CCC(=O)O)C(C)C)ccc12 [LLVY, Suc-Leu-Leu-Val-Tyr-AMC] (Suc-LLVY-{AMC})
K m (chymotrypsin-like site (beta5)): Michaelis-Menten constants (K m) of the proteasome in rat liver versus age

Cc1cc(=O)oc2cc(NC(=O)[C@H](CCCNC(=N)N)NC(=O)CNC(=O)[C@@H](NC(=O)OC(C)(C)C)C(C)C)ccc12 [VGR, Boc-Val-Gly-Arg-AMC] (Boc-Val-Gly-Arg-{AMC})
K m (trypsin-like site (beta2)): Michaelis-Menten constants (K m) of the proteasome in rat liver versus age
